{"source": "patent US20100284984A1", "about": "“ADENOSINE AND ITS MIMETICS. MODULATORS, TRANSPORT INHIBITORS, AND RECEPTOR AGONISTS AS A THERAPEUTIC TOOL TO REPLACE OR IMPROVE THE EFFICACY OF DEEP BRAIN STIMULATION” (University of Rochester, priority 2007, published 2010)", "key": {"thalamic neurons [1]": {"system": "thalamic neurons", "experiment": "Drug effect on evoked EPSPs (eEPSP) in thalamic slices, current clamp", "assay_type": "cell-based, mouse", "settings": "DPCPX 100 nM", "method": "Thalamic slices (300 μm) from 14-18 day old mouse pups (FVB/NJ mice; Jackson Laboratory) were cut on a Vibratome (TPI) in an ice-cold cutting solution containing (in mM): 2.5 KCl, 1.25 NaH2PO4, 10 MgSO4, 5 CaCl2, 10 glucose, 26 NaHCO3, 230 sucrose and gassed with 5% CO2 and 95% O2. Slices were incubated for a minimum of 1 hr in a slice solution containing (in mM): 126 NaCl, 2.5 KCl, 1.25 NaH2PO4, 2 MgCl2, 2 CaCl2, 10 glucose, and 26 NaHCO3, pH 7.4, and gassed with 5% CO2 and 95% O2 at room temperature. The slices were transferred to a recording chamber (1.5 ml) perfused with aCSF at room temperature or 32° C. Whole-cell current clamp recordings were obtained using a 700B Multiclamp amplifier (Axon Instruments) (Jiang et al., “A Kainate Receptor Increases The Efficacy of Gabaergic Synapses,” Neuron 30:503-13 (2001); Tian et al., “An Astrocytic Basis of Epilepsy,” Nat Med 11:973-81 (2005), which are hereby incorporated by reference in their entirety). Concentric bipolar stimulating electrodes (FHC) were placed ˜100-400 μm ventromedial to the patched VL thalamic neuron. Stimulation was delivered through a constant isolated current source (ISO-Flex stimulus isolator with a Master-8-vp stimulator; AMPI) and consisted of monophasic 60 μs square pulses of varying amplitude (15, 25, 50 μA) and frequency (25, 75, 125, 200 Hz). Based upon maximum current amplitude and the surface area of the electrode, it is estimated that the maximum charge density was in the range of ˜1-10 μC/cm^2. The artifacts of the HFS signal were blanked and staggered to allow continuous observation of the 2.5 Hz signal (Anderson et al., “Selective Attenuation of Afferent Synaptic Transmission as a Mechanism of Thalamic Deep Brain Stimulation-Induced Tremor Arrest,” J Neurosci 26:841-50 (2006), which is hereby incorporated by reference in its entirety). Adenosine measurements were detected using needle shaped electrode (Pt/Ir wire) biosensors (Sarissa Biomedical). Calibration was carried out at the beginning and end of each slice experiment in the bath above the slice. Measurements were obtained ˜100 μm from the stimulation electrode in the thalamic slice. […].\nTo further analyze the role of adenosine in HFS, the effect of perfusion with an aCSF containing 1-100 μM adenosine in thalamic slices was studied. […]. […] The AMPA receptor antagonist, CNQX could not be tested due to its direct effect on EPSCs (Wang et al., “Astrocytic Ca(2+) Signaling Evoked by Sensory Stimulation in Vivo,” Nat Neurosci 9:816-23 (2006), which is hereby incorporated by reference in its entirety) (FIG. 3G). […]. […]"}, "thalamic neurons [2]": {"system": "thalamic neurons", "experiment": "HFS-induced depression of eEPSPs in thalamic slices, pharmacology", "assay_type": "cell-based, mouse"}, "thalamic neurons [3]": {"system": "thalamic neurons", "experiment": "HFS-induced membrane depolarization of thalamic neurons", "assay_type": "cell-based, mouse", "settings": "thalamic slices during HFS"}, "harmaline-induced tremor": {"system": "harmaline-induced tremor", "experiment": "DBS therapeutic window in harmaline-induced tremor", "assay_type": "in vivo", "settings": "APV and CNQX 10 mg/kg each i.p.; DPCPX 4 mg/Kg i.p.", "method": "Harmaline was administed i.p. 20 min prior to DBS (20-30 mg/kg) (Wilms et al., “Animal Models of Tremor,” Mov Disord 14:557-71 (1999); Martin et al., “Harmaline-Induced Tremor as a Potential Preclinical Screening Method for Essential Tremor Medications,” Mov Disord 20:298-305 (2005), which are hereby incorporated by reference in their entirety). […] For electrode and microdialysis implantation, mice were anaesthetized with a mixture of Ketamine (60 mg/kg) and Xylazine (10 mg/kg) and placed into a stereotactic frame. The skull was exposed and concentric bipolar microelectrodes (SNE-100, KOPF) or microdialysis probes (Bioanalytical Systems, Inc.) were implanted into the ventrolateral thalamic nucleus at the following coordinates: AP: −1.4 mm; ML: ±0.9 mm; DV: −3.7 mm. The electrodes or microdialysis probes were attached to the skull with dental cement. […] Tremor was recorded by either EMG electrodes placed in the occipital muscles or by the Convuls-1 pressure transducer (Columbus Instruments) in awake freely moving animals. […]\n. […] The minimal efficient current amplitude of DBS was determined by methodically changing the stimulation parameters (FIG. 4C). […]"}, "adenosine deaminase": {"target": "T1, adenosine deaminase (Homo sapiens, UniProt P00813)", "T1 sequence (P00813 1-363)": "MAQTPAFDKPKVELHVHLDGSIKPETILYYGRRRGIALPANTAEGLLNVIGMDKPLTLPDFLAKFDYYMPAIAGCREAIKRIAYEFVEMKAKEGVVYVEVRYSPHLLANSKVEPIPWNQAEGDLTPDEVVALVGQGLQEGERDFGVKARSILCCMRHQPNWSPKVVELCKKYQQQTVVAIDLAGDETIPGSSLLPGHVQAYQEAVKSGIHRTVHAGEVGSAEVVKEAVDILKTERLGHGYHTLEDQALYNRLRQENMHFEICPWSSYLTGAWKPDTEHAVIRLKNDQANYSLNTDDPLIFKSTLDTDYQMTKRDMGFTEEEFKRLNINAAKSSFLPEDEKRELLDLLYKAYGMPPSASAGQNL", "settings": "at 27° C.; cited from earlier work"}, "[4]": {"target": "T2, Ecto-5′-nucleotidase CD73 (Rattus norvegicus, UniProt P21588)", "T2 sequence (P21588 29-551)": "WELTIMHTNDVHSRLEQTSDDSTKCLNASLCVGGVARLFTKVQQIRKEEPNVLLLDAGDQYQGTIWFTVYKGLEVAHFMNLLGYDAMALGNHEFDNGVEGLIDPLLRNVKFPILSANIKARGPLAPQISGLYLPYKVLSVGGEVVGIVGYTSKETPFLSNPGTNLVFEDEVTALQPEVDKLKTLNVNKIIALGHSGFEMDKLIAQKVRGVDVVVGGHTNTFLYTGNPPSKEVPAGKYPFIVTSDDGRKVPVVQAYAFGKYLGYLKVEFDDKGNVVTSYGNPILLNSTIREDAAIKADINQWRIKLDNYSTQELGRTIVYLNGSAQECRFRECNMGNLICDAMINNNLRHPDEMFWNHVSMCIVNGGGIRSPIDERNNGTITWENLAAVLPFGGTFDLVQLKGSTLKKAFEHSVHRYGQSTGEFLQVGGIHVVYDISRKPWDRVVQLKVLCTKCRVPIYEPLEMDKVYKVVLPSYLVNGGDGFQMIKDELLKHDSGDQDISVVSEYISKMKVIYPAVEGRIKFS", "settings": "Sato et al., rat hearts; cited from earlier work"}, "Ecto-ATPase [5]": {"target": "Ecto-ATPase", "settings": "Chen et al.; cited from earlier work"}, "Ecto-ATPase [6]": {"target": "Ecto-ATPase", "settings": "Yegutkin et al., rat liver plasma membranes; cited from earlier work"}, "Ecto-ATPase [7]": {"target": "Ecto-ATPase", "settings": "range over Crack et al.; Dowd et al.; Stout et al.; cited from earlier work"}}, "note": "“Also recorded” adds a separate entry of the source."}
{"smiles": "CCCn1c(=O)c2[nH]c(C3CCCC3)nc2n(CCC)c1=O", "note": "[DPCPX]", "values": [{"measurement": "effect on adenosine-induced reduction of eEPSPs", "setting": "thalamic neurons [1]", "result": "blocked the effect of adenosine; also recorded: reversibly attenuated the reduction"}, {"measurement": "time for EPSPs to recover to pre-stimulation values after HFS", "setting": "thalamic neurons [2]; 300 nM, directly stimulated pathways", "result": "12.4 ± 6.1", "unit": "s"}, {"measurement": "effect on HFS-induced depression of eEPSPs, heterosynaptic pathways", "setting": "thalamic neurons [2]; HFS 125 Hz, 250 μA, 10 sec, 32° C., separate electrodes", "result": "attenuated the depression of eEPSPs; also recorded: potently attenuated the HFS-induced suppression of eEPSPs"}, {"measurement": "effect on HFS-induced depression of eEPSPs, homosynaptic (directly stimulated) pathways", "setting": "thalamic neurons [2]; same electrode for HFS and eEPSPs", "result": "reduced depression of eEPSPs after, but not during, HFS; also recorded: attenuated this reduction following, but not during HFS"}, {"measurement": "effect on HFS-induced depolarization", "setting": "thalamic neurons [3]", "result": "no effect"}, {"measurement": "effect on the ability of DBS to reduce harmaline-induced tremor", "setting": "harmaline-induced tremor", "result": "involuntary movements rather than tremor reduction"}, {"measurement": "threshold for DBS-induced involuntary movements", "setting": "harmaline-induced tremor", "result": "developed involuntary movements at stimulation intensities below the therapeutic range"}]}
{"smiles": "CC(=O)Nc1ccc(O)cc1", "note": "[acetaminophen]", "values": [{"measurement": "Ki", "setting": "adenosine deaminase", "result": 126, "unit": "µM"}]}
{"smiles": "COc1ccc(Cl)cc1C(=O)NCCc1ccc(S(=O)(=O)NC(=O)NC2CCCCC2)cc1", "note": "[giberclamide]", "values": [{"measurement": "IC50", "setting": "[4]", "result": 10.5, "unit": "µM"}]}
{"smiles": "Cc1ccc(C(=O)Nc2ccc(S(=O)(=O)O)c3cc(S(=O)(=O)O)cc(S(=O)(=O)O)c23)cc1NC(=O)c1cccc(NC(=O)Nc2cccc(C(=O)Nc3cc(C(=O)Nc4ccc(S(=O)(=O)O)c5cc(S(=O)(=O)O)cc(S(=O)(=O)O)c45)ccc3C)c2)c1", "note": "[suramin]", "values": [{"measurement": "Ki", "setting": "Ecto-ATPase [5]", "result": 44, "unit": "µM"}, {"measurement": "pIC 50", "setting": "Ecto-ATPase [6]", "result": 4.57}, {"measurement": "IC50", "setting": "Ecto-ATPase [7]", "result": "46 to 114", "unit": "µM"}]}
